In patent US20250289789A1, “REVERSIBLE LYSINE COVALENT MODIFIERS OF CDK2 AND USES THEREOF” (Terremoto Biosciences, Inc., priority 2023, published 2025):
Read-outs that look alike come from different tables or passages of the source.

Tests used:
Assay type in all cases: cell-based
[1] = target: T1, CDK1-NanoLuc fusion with CCNB1 in 293T or 293 cells (Homo sapiens, UniProt P06493); experiment: NanoBRET Target Engagement (TE) Intracellular Kinase Assay, CDK1/CCNB1; settings: NanoBRET TE intracellular kinase assay, 2-hour incubation, read-out: NanoBRET-CDK1/B1 IC50
T1 construct: host or cells: 293T (ATCC CRL-3216) or 293 (ATCC CRL-1573)
Method in brief: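 IC50 derived by four-parameter logistic fit of DMSO-normalized acceptor/donor (610/450 nm) BRET ratio. Compound and Tracer K-10 were applied together for 2 h at 37° C to 293 or 293T cells transfected 24 h earlier with CDK1-NanoLuc fusion and cyclin B1.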

[2] = target: T2, CDK4-NanoLuc fusion with CCND1 in 293T or 293 cells (Homo sapiens, UniProt P11802); experiment: NanoBRET Target Engagement (TE) Intracellular Kinase Assay, CDK4/CCND1; settings: NanoBRET TE intracellular kinase assay, 2-hour incubation, read-out: NanoBRET-CDK4/D1 IC50
T2 construct: host or cells: 293T (ATCC CRL-3216) or 293 (ATCC CRL-1573)

[3] = target: T3, CDK2-NanoLuc fusion with CCNE1 in 293T or 293 cells (Homo sapiens, UniProt P24941); experiment: NanoBRET Target Engagement (TE) Intracellular Kinase Assay, CDK2/CCNE1; settings: 2-hour incubation
T3 construct: host or cells: 293T (ATCC CRL-3216) or 293 (ATCC CRL-1573)

[4] = test system: Phospho-Rb Ser807/811 in OVCAR3 cells; experiment: OVCAR3 Phospho-Rb Ser807/811 HTRF assay; settings: Homo sapiens, read-out: pRb-OVCAR3 IC50
Protocol: Cells were trypsinized and resuspended in 1 mM hydroxyurea (Sigma; H8627), 90% RPMI and 10% fetal bovine serum. […] Dose response curve normalized to DMSO control was plotted using four-parameter logistic model for IC50 calculation.

[5] = NanoBRET TE intracellular kinase assay, read-out: NanoBRET-CDK2/E1 IC50
[6] = OVCAR-3, 1 h, OVCAR3 cells, Phospho-Rb Ser807/811 HTRF, 1 hour incubation

T2 sequence (P11802 whole entry, the tested form may be a part): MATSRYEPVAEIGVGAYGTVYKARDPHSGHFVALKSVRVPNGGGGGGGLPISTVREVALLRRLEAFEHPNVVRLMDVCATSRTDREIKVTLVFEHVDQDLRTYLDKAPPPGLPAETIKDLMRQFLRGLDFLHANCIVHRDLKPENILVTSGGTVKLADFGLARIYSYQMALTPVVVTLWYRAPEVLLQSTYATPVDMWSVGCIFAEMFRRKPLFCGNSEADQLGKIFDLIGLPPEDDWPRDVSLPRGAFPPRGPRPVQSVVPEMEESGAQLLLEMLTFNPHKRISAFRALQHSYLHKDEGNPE
T2 sequence (P24385 whole entry partner, the tested form may be a part): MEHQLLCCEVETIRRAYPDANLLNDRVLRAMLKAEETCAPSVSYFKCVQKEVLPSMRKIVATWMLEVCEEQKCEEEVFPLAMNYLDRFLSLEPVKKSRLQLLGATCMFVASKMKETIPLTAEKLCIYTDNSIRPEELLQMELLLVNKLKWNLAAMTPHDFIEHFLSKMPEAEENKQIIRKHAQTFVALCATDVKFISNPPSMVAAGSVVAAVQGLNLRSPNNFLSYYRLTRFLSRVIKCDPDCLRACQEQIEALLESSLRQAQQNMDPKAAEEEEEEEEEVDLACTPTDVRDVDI
T1 sequence (P06493 whole entry, the tested form may be a part): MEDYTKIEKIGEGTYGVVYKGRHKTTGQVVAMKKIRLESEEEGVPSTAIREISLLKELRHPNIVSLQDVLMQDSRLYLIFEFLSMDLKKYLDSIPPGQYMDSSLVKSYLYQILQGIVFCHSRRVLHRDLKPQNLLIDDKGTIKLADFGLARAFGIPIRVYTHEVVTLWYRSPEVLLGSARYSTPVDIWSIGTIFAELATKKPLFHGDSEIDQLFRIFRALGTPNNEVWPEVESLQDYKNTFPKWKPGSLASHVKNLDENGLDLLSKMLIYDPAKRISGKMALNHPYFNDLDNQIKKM
T1 sequence (P14635 whole entry partner, the tested form may be a part): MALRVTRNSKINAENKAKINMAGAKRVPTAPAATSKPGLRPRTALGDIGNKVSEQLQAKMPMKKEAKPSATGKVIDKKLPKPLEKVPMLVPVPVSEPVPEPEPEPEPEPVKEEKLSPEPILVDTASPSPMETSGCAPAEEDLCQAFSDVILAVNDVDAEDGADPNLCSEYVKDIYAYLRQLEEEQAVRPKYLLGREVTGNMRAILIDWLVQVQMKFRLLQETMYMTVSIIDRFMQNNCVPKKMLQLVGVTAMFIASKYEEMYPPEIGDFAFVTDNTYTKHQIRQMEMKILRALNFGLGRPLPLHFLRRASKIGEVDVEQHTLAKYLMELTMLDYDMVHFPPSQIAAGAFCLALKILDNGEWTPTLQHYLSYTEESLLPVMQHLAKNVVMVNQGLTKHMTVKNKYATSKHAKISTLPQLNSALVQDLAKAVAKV

Row | SMILES | IC50 [1] [µM] | IC50 [2] [µM] | IC50 [3, 5] [µM] | IC50 [4, 6] [µM] | IC50 ([4]; OVCAR-3, 1 h) [µM] | IC50 ([3]; NanoBRET-CDK2/E1 IC50, NanoBRET TE intracellular kinase assay) [µM] | IC50 ([4]; OVCAR-3, OVCAR3 cells, Phospho-Rb Ser807/811 HTRF, 1 hour incubation) [µM]
1 | CC(C)NC(=O)O[C@@H]1CC[C@H](c2cc(NC(=O)c3cn(-c4cccc(O)c4C=O)nc3C(F)F)n[nH]2)C1 [Compound 54, (1R,3S)-3-(3-(3-(difluoromethyl)-1-(2-formyl-3-hydroxyphenyl)-1H-pyrazole-4-carboxamido)-1H-pyrazol-5-yl)cyclopentyl isopropylcarbamate] | 0.175 | > 10 | 0.0234 | 1.69 | – | – | –
2 | CC(C)NC(=O)O[C@@H]1CC[C@H](c2cc(NC(=O)[C@H]3C[C@@H](Oc4cccc(O)c4C=O)C3)n[nH]2)C1 (single isomer, unassigned) [Compound 94] | 0.165 | 1.31 | 0.00973 | 1.44 | – | – | –
3 | CC(C)NC(=O)O[C@@H]1CC[C@H](c2cc(NC(=O)c3cc(C=O)c4[nH]ncc4c3)n[nH]2)C1 [Compound 40, (1R,3S)-3-(3-(7-formyl-1H-indazole-5-carboxamido)-1H-pyrazol-5-yl)cyclopentyl isopropylcarbamate] | 0.275 | 1.46 | 0.0244 | 0.796 | – | – | –
4 | C#CCNC(=O)O[C@@H]1CC[C@H](c2cc(NC(=O)COc3cc(OC)cc(O)c3C=O)n[nH]2)C1 [Compound 253] | 0.0184 | 5.1 | 0.00265 | 0.0287 | – | – | –
5 | CC(C)NC(=O)O[C@@H]1CC[C@H](c2cc(NC(=O)c3cc(-c4ccc(O)c(C=O)c4)nn3C)n[nH]2)C1 [Compound 31, (1R,3S)-3-{5-[5-(3-formyl-4-hydroxyphenyl)-2-methylpyrazole-3-amido]-2H-pyrazol-3-yl}cyclopentyl N-isopropylcarbamate] | 0.0204 | 3.07 | 0.00546 | 0.214 | – | – | –
6 | COc1cc(O)c(C=O)c(OCC(=O)Nc2cc([C@H]3CC[C@@H](OC(=O)N4C[C@H]5C[C@@H]4CO5)C3)[nH]n2)c1 [Compound 203] | 0.0186 | > 10 | 0.00737 | 0.06 | – | – | –
7 | CC(C)NC(=O)O[C@@H]1CC[C@H](c2cc(NC(=O)CCc3cccc(O)c3C=O)n[nH]2)C1 [Compound 7, (1R,3S)-3-(3-(3-(2-formyl-3-hydroxyphenyl)propanamido)-1H-pyrazol-5-yl)cyclopentyl isopropylcarbamate trifuoroacetic acid] | 0.275 | 1.85 | 0.0114 | – | 1.5 | – | –
8 | C[C@@H]1CCCN1C(=O)O[C@@H]1CC[C@H](c2cc(NC(=O)COc3cccc(O)c3C=O)n[nH]2)C1 [Compound 101, (1R,3S)-3-{5-[2-(2-formyl-3-hydroxyphenoxy)acetamido]-2H-pyrazol-3-yl}cyclopentyl (2R)-2-methylpyrrolidine-1-carboxylate; trifluoro-acetic acid] | 0.0203 | 9.2 | – | – | – | 0.00579 | 0.188
9 | CC(C)NC(=O)O[C@@H]1CC[C@H](c2cc(NC(=O)Cc3ncc(-c4cccc(O)c4C=O)s3)n[nH]2)C1 [Compound 66, (1R,3S)-3-(5-{2-[5-(2-formyl-3-hydroxyphenyl)-1,3-thiazol-2-yl]acetamido}-2H-pyrazol-3-yl)cyclopentyl N-isopropylcarbamate; trifluoroacetic acid] | 0.39 | 0.779 | 0.00887 | 1.69 | – | – | –
10 | COCC1(NC(=O)O[C@@H]2CC[C@H](c3cc(NC(=O)COc4cc(OC)cc(O)c4C=O)n[nH]3)C2)CCC1 (stereo in doubt) [Compound 198] | 0.007 | 3.22 | 0.00192 | 0.0387 | – | – | –
11 | COc1cc(O)c(C=O)c(OCC(=O)Nc2cc([C@H]3CC[C@@H](OC(=O)N4C5CCC4CC5)C3)[nH]n2)c1 [Compound 229] | 0.00197 | 1.9 | 0.00175 | 0.0288 | – | – | –
12 | CC(C)NC(=O)O[C@@H]1CC[C@H](c2cc(NC(=O)OCc3cccc(O)c3C=O)n[nH]2)C1 [Compound 63, (2-formyl-3-hydroxyphenyl)methyl N-{5-[(1S,3R)-3-[(isopropylcarbamoyl)oxy]cyclopentyl]-1H-pyrazol-3-yl}carbamate] | 0.361 | 6.32 | 0.00955 | 1.26 | – | – | –
13 | Cc1ccc(OCC(=O)Nc2cc([C@H]3CC[C@@H](OC(=O)NC(C)C)C3)[nH]n2)c(C=O)c1O [Compound 56, (1R,3S)-3-(3-(2-(2-formyl-3-hydroxy-4-methylphenoxy)acetamido)-1H-pyrazol-5-yl)cyclopentyl isopropylcarbamate] | 0.00483 | > 10 | 0.00132 | 0.0758 | – | – | –
14 | COc1cc(O)c(C=O)c(OCC(=O)Nc2cc([C@H]3CC[C@@H](OC(=O)NC45CC(C4)C5)C3)[nH]n2)c1 [Compound 249, (1R,3S)-3-{5-[2-(2-formyl-3-hydroxy-5-methoxyphenoxy)acetamido]-2H-pyrazol-3-yl}cyclopentyl N-{bicyclo[1.1.1]pentan-1-yl}carbamate] | 0.0045 | 1.19 | 0.0015 | 0.0266 | – | – | –
15 | COc1cc(OC)c(C=O)c(OCC(=O)Nc2cc([C@H]3CC[C@@H](OC(=O)N4CCC4(C)C)C3)[nH]n2)c1 [Compound 227] | 0.00061 | 1.29 | 0.00173 | 0.0181 | – | – | –
16 | O=Cc1c(O)cccc1OCC(=O)Nc1cc([C@H]2CC[C@@H](OC(=O)NC3CCC3)C2)[nH]n1 [Compound 87, (1R,3S)-3-(3-(2-(2-formyl-3-hydroxyphenoxy)acetamido)-1H-pyrazol-5-yl)cyclopentyl cyclobutylcarbamate] | 0.0243 | 9.8 | 0.00277 | 0.208 | – | – | –
17 | COc1cc(O)c(C=O)c(OCC(=O)Nc2cc([C@H]3CC[C@@H](OC(=O)N4CC5CC4C5)C3)[nH]n2)c1 [Compound 228] | 0.00425 | 4.17 | 0.00227 | 0.0344 | – | – | –
18 | COCCOCCNC(=O)O[C@@H]1CC[C@H](c2cc(NC(=O)COc3cc(OC)cc(O)c3C=O)n[nH]2)C1 [Compound 210] | 0.0263 | > 10 | 0.0069 | 0.0685 | – | – | –
19 | CCCNC(=O)O[C@H]1C[C@@H](c2cc(NC(=O)COc3cc(OC)cc(OC)c3C=O)n[nH]2)C1 [Compound 110, (1s,3s)-3-(3-(2-(2-formyl-3,5-dimethoxyphenoxy)acetamido)-1H-pyrazol-5-yl)cyclobutyl propylcarbamate] | 0.00764 | 5.36 | 0.0029 | 0.0277 | – | – | –
20 | CC(C)NC(=O)O[C@@H]1CC[C@H](c2cc(NC(=O)Cc3cnc(-c4cccc(O)c4C=O)s3)n[nH]2)C1 [Compound 67, (1R,3S)-3-(3-(2-(2-(2-formyl-3-hydroxyphenyl)thiazol-5-yl)acetamido)-1H-pyrazol-5-yl)cyclopentyl isopropylcarbamate; trifluoroacetic acid] | 0.0353 | 0.202 | 0.00673 | 0.475 | – | – | –
21 | COc1cc(O)c(C=O)c(OCC(=O)Nc2cc([C@H]3CC[C@@H](OC(=O)N4CC[C@H](F)C4)C3)[nH]n2)c1 [Compound 233] | 0.00219 | 2.69 | 0.00247 | 0.0221 | – | – | –
22 | C#CC1(NC(=O)O[C@@H]2CC[C@H](c3cc(NC(=O)COc4cc(OC)cc(O)c4C=O)n[nH]3)C2)CC1 [Compound 218] | 0.00553 | 2.9 | 0.00233 | 0.0182 | – | – | –
23 | CC(C)NC(=O)O[C@@H]1CC[C@H](c2cc(NC(=O)CCOc3cccc(O)c3C=O)n[nH]2)C1 [Compound 34, (1R,3S)-3-{5-[3-(2-formyl-3-hydroxyphenoxy)propanamido]-2H-pyrazol-3-yl}cyclopentyl N-isopropylcarbamate; trifluoroacetic acid] | 0.0989 | 0.196 | 0.00534 | 0.552 | – | – | –
24 | COc1cc(O)c(C=O)c(OCC(=O)Nc2cc([C@H]3CC[C@@H](OC(=O)N4CC[C@H](C)C4)C3)[nH]n2)c1 [Compound 238] | 0.00982 | 4.1 | 0.00164 | 0.0328 | – | – | –
25 | COc1cc(O)c(C=O)c(OCC(=O)Nc2cc([C@H]3CC[C@@H](OC(=O)N4CCOC[C@H]4C)C3)[nH]n2)c1 [Compound 206] | 0.00562 | > 10 | 0.00246 | 0.0274 | – | – | –
